#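 Results reflect a 48-hour exposure of cells in 96-well plates to compound at five concentrations. At the GI50, growth is halved.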 Calls of active or inactive are those of the source. No stated cut-off is given here; in the data, active = GI50 up to about 1.1 µM and inactive = higher.
# Assays:
# Experiment in all cases: NCI anticancer screen, dose series, 48 h
# [1] = test system: NCI/ADR-RES
# [2] = test system: HT-29
# [3] = test system: ACHN
# [4] = test system: NCI-H460
# [5] = test system: CAKI-1
# [6] = test system: LOX IMVI
# [7] = test system: COLO 205
# [8] = test system: Hs-578T
# [9] = test system: IGROV-1
# [10] = test system: SK-MEL-2
# [11] = test system: OVCAR-8
# [12] = test system: KM12
# [13] = test system: U-251
# [14] = test system: UO-31
# [15] = test system: SNB-75
# [16] = test system: UACC-257
# [17] = test system: MCF7
# [18] = test system: DU-145
# [19] = test system: HOP-62
# [20] = test system: RPMI-8226
# [21] = test system: HOP-92
# [22] = test system: SF-539
# [23] = test system: SR
# [24] = test system: OVCAR-4
# [25] = test system: MOLT-4
# [26] = test system: EKVX
# [27] = test system: Malme-3M
# [28] = test system: MDA-MB-435
# [29] = test system: HCT-15
# [30] = test system: SF-268
# [31] = test system: PC-3
# [32] = test system: NCI-H226
# [33] = test system: SNB-19
# [34] = test system: A549
# [35] = test system: OVCAR-3
# [36] = test system: CCRF-CEM
# [37] = test system: K562
# [38] = test system: A498
# [39] = test system: HCC 2998
# [40] = test system: SW-620
# [41] = test system: HCT-116
# [42] = test system: SK-MEL-5
# [43] = test system: MDA-MB-231
# [44] = test system: SN12C
# [45] = test system: T47D
# [46] = test system: UACC-62
# [47] = test system: SF-295
# [48] = test system: NCI-H522
# [49] = test system: M14
# [50] = test system: SK-OV-3
# [51] = test system: OVCAR-5
# [52] = test system: MDA-N
# [53] = test system: TK-10
# [54] = test system: NCI-H23
# [55] = test system: 786-0
# [56] = test system: RXF 393
# [57] = test system: SK-MEL-28
# [58] = test system: HL-60
smiles,measurement,setting,value
COc1ccccc1NC(=S)N/N=C1\C(=O)Nc2ccccc21,GI50,[1],> 100 µM (inactive)
same,GI50,[2],> 100 µM (inactive)
same,GI50,[3],> 100 µM (inactive)
same,GI50,[4],> 100 µM (inactive)
same,GI50,[5],> 100 µM (inactive)
same,GI50,[6],> 100 µM (inactive)
same,GI50,[7],> 100 µM (inactive)
same,GI50,[8],> 100 µM (inactive)
same,GI50,[9],> 100 µM (inactive)
same,GI50,[10],> 100 µM (inactive)
same,GI50,[11],> 100 µM (inactive)
same,GI50,[12],> 100 µM (inactive)
same,GI50,[13],> 100 µM (inactive)
same,GI50,[14],> 100 µM (inactive)
same,GI50,[15],58.9 µM (inactive)
same,GI50,[16],> 100 µM (inactive)
same,GI50,[17],42.6 µM (inactive)
same,GI50,[18],0.762 µM (active)
same,GI50,[19],> 100 µM (inactive)
same,GI50,[20],> 100 µM (inactive)
same,GI50,[21],> 100 µM (inactive)
same,GI50,[22],> 100 µM (inactive)
same,GI50,[23],> 100 µM (inactive)
same,GI50,[24],> 100 µM (inactive)
same,GI50,[25],> 100 µM (inactive)
same,GI50,[26],86.3 µM (inactive)
same,GI50,[27],> 100 µM (inactive)
same,GI50,[28],> 100 µM (inactive)
same,GI50,[29],> 100 µM
same,GI50,[30],0.583 µM (active)
same,GI50,[31],> 100 µM (inactive)
same,GI50,[32],> 100 µM (inactive)
same,GI50,[33],> 100 µM (inactive)
same,GI50,[34],> 100 µM (inactive)
same,GI50,[35],57.7 µM (inactive)
same,GI50,[36],> 100 µM (inactive)
same,GI50,[37],> 100 µM (inactive)
same,GI50,[38],> 100 µM (inactive)
same,GI50,[39],> 100 µM (inactive)
same,GI50,[40],> 100 µM (inactive)
same,GI50,[41],> 100 µM (inactive)
same,GI50,[42],73.5 µM (inactive)
same,GI50,[43],> 100 µM (inactive)
same,GI50,[44],> 100 µM (inactive)
same,GI50,[45],> 100 µM (inactive)
same,GI50,[46],> 100 µM (inactive)
same,GI50,[47],> 100 µM (inactive)
same,GI50,[48],> 100 µM (inactive)
same,GI50,[49],> 100 µM (inactive)
same,GI50,[50],> 100 µM (inactive)
same,GI50,[51],> 100 µM (inactive)
same,GI50,[52],> 100 µM (inactive)
same,GI50,[53],> 100 µM (inactive)
same,GI50,[54],> 100 µM (inactive)
same,GI50,[55],> 100 µM (inactive)
same,GI50,[56],> 100 µM (inactive)
same,GI50,[57],3.29 µM (inactive)
COC(=O)CNC(=O)CSc1nnc(COc2ccc(Cl)cc2)n1-c1ccccc1,GI50,[1],> 100 µM (inactive)
same,GI50,[2],40.6 µM (inactive)
same,GI50,[3],24 µM (inactive)
same,GI50,[4],56.8 µM (inactive)
same,GI50,[5],16.9 µM (inactive)
same,GI50,[6],31.3 µM (inactive)
same,GI50,[7],> 100 µM (inactive)
same,GI50,[9],21 µM (inactive)
same,GI50,[10],23.5 µM (inactive)
same,GI50,[11],31 µM (inactive)
same,GI50,[12],56.9 µM (inactive)
same,GI50,[13],38.6 µM (inactive)
same,GI50,[14],27.4 µM (inactive)
same,GI50,[15],17.3 µM (inactive)
same,GI50,[16],29.9 µM (inactive)
same,GI50,[17],79.6 µM (inactive)
same,GI50,[18],16.3 µM (inactive)
same,GI50,[19],> 100 µM (inactive)
same,GI50,[21],31.8 µM (inactive)
same,GI50,[22],> 100 µM (inactive)
same,GI50,[24],> 100 µM (inactive)
same,GI50,[25],64.1 µM (inactive)
same,GI50,[26],> 100 µM (inactive)
same,GI50,[27],41.3 µM (inactive)
same,GI50,[28],20.8 µM (inactive)
same,GI50,[29],> 100 µM
same,GI50,[30],22.2 µM (inactive)
same,GI50,[31],24 µM (inactive)
same,GI50,[32],47.4 µM (inactive)
same,GI50,[33],> 100 µM (inactive)
same,GI50,[34],> 100 µM (inactive)
same,GI50,[35],71.8 µM (inactive)
same,GI50,[36],57.4 µM (inactive)
same,GI50,[37],> 100 µM (inactive)
same,GI50,[38],> 100 µM (inactive)
same,GI50,[39],25.3 µM (inactive)
same,GI50,[40],43.6 µM (inactive)
same,GI50,[41],94.4 µM (inactive)
same,GI50,[43],20.5 µM (inactive)
same,GI50,[44],19.8 µM (inactive)
same,GI50,[45],26.6 µM (inactive)
same,GI50,[46],39.5 µM (inactive)
same,GI50,[47],> 100 µM (inactive)
same,GI50,[48],15.3 µM (inactive)
same,GI50,[49],37.3 µM (inactive)
same,GI50,[50],> 100 µM (inactive)
same,GI50,[51],56.1 µM (inactive)
same,GI50,[58],30.1 µM (inactive)
same,GI50,[52],19.2 µM (inactive)
same,GI50,[53],22 µM (inactive)
same,GI50,[54],40.3 µM (inactive)
same,GI50,[55],16.1 µM (inactive)
same,GI50,[56],23.1 µM (inactive)
same,GI50,[57],26.6 µM (inactive)
